Measured values from patent US11564912B2, “Methods for treating irritable bowel syndrome (IBS)” (Salix Pharmaceuticals, Inc., priority 2008, dated 2023).
Several values for one entry are separate records, joined by “and”; a condition that tells them apart may be missing. Equal values may be shown once.

Tested on: subjects with dIBS
Test: Study of rifaximin BID in subjects with dIBS: adequate relief of IBS symptoms and bloating
Format: in vivo, human
Details: for Percentage of Subjects with Adequate Relief of Bloating Symptom / Percentage of Subjects with Adequate Relief of IBS Symptoms: RFX 550 mg BID 14 days, N = 191, ITT, at least two of the final three weeks of treatment phase (Weeks 1 to 4); for Adequate Relief of Bloating, Post Treatment: Failures / Adequate Relief of Bloating, Post Treatment: Success / Adequate Relief of Bloating, Post Treatment: Failure: RFX 550 2 w (N = 54); for Patients with adequate relief of bloating / Patients with adequate relief of global IBS symptoms: rifaximin 550 mg twice daily 14 days
Experimental: This example relates to a study of rifaximin in subjects with dIBS. […] There were two measures of efficacy assessed. Subjects were questioned on the relief of overall IBS symptoms and bloating. […] The analyses defined success as a “yes” response to questions regarding adequate relief.
All subpopulations in the study responded to therapy. Baseline severity was determined using 7-point Lickert scales during screening for Abdominal Pain/Discomfort and Bloating, and the number, type (normal, hard, loose) and urgency of bowel movements.
Duration of effect was assessed in a follow-up period. Subjects that responded in the 4 week treatment period were followed for an additional 3 months.
The effect of treatment on the percentage of subjects who reported adequate relief of IBS and bloating symptoms for at least two of the final three weeks during the treatment phase (Weeks 1 to 4) is shown in Tables 3-5 and FIGS. 4-6 below.
Two measures of efficacy were assessed independently. The first was the proportion of subjects who provided a ‘yes’ response to the weekly SGA question: “In the past 7 days, have you had adequate relief of your IBS symptoms? (yes/no)”. The second endpoint was the proportion of subjects who provide a ‘yes’ response to the weekly individual symptom question: “In the past 7 days, have you had adequate relief of your symptom of bloating? (yes/no)”. Durability was based on the proportion of subjects that had adequate relief over the entire treatment phase.
It is reported herein that the severity of baseline symptoms of abdominal pain and bloating influenced the response to rifaximin treatment. The co-primary endpoints in this analysis assessed weekly yes/no responses to questions regarding adequate relief of global IBS symptoms and IBS-associated bloating. Severity of baseline IBS symptoms was evaluated as a potential confounder of clinical response and was categorized as mild/moderate or severe based on a mean score of ≤4 vs. >4 (on a 7-point scale) for bloating and abdominal pain.
The Weekly yes/no responses to questions regarding adequate relief of global IBS symptoms and IBS-associated bloating were assessed. Clinical response was defined as adequate relief for 2 of the final 3 treatment weeks (wk 2, 3, or 4). Severity of baseline IBS symptoms was evaluated as a potential confounder of clinical response and was categorized as mild/moderate or severe based on a mean score of ≤4 versus >4 (on a 7-point scale (0=not bothersome; 6=very bothersome)) for bloating and abdominal pain.

[1] = RFX 550 mg BID vs placebo, ITT, listed as RFX
[2] = RFX 550 mg BID, responders followed through week 16
[3] = patients with mild/moderate abdominal pain at baseline
[4] = patients with mild/moderate bloating at baseline

(2S,16Z,18E,20S,21S,22R, 23R,24R,25S,26S,27S,28E)-5,6,21,23,25 Pentahydroxy-27-methoxy -2,4,11,16,20,22,24,26-octamethyl-2,7-(epoxypentadeca-(1,11,13)trienimino)benzofuro (4,5-e) pyrido(1,2,-a) benzimidazole-1,15(2H)-dione,25-acetate [Rifaximin]
Adequate Relief of IBS Symptoms at the End of the Treatment Phase: Success (Male, RFX 550 2 w (N = 191)): 29 (53.7%) n (%)
odds ratio, Adequate Relief of Bloating at the End of the Treatment Phase (Male, RFX 550 2 w vs. PBO): Comparison of RFX 550 2 w vs. PBO p-value: 0.0802, odds ratio: 2.148 (0.912, 5.057)
odds ratio, Adequate Relief of IBS Symptoms at the End of the Treatment Phase (Male, RFX 550 2 w vs. PBO): Comparison of RFX 550 2 w vs. PBO p-value: 0.0326, odds ratio: 2.511 (1.079, 5.842)
Adequate Relief of Bloating at the End of the Treatment Phase: Failure (Male, RFX 550 4 w (N = 98)): 16 (72.7%) n (%)
Adequate Relief of Bloating at the End of the Treatment Phase: Success (Male, RFX 550 4 w (N = 98)): 6 (27.3%) n (%)
Adequate Relief of IBS Symptoms at the End of the Treatment Phase: Failure (Male, RFX 550 4 w (N = 98)): 15 (68.2%) n (%)
Adequate Relief of IBS Symptoms at the End of the Treatment Phase: Success (Male, RFX 550 4 w (N = 98)): 7 (31.8%) n (%)
Percentage of Subjects with Adequate Relief of Bloating Symptom: 46%
Percentage of Subjects with Adequate Relief of IBS Symptoms: 52%
Percentage of Subjects with Adequate Relief of Bloating Symptom (listed as RFX): 46.1%
Percentage of Subjects with Adequate Relief of IBS Symptoms (listed as RFX): 52.4%
Odds Ratio Estimate, Number of Weeks with Adequate Relief of Bloating Symptoms (RFX 550 mg BID vs placebo, ITT): 1.57
Odds Ratio Estimate, Number of Weeks with Adequate Relief of IBS Symptoms (RFX 550 mg BID vs placebo, ITT): 1.54
Odds Ratio Estimate, Adequate Relief of Bloating Symptom [1]: 1.6 and 1.58
Odds Ratio Estimate, Adequate Relief of IBS Symptoms [1]: 1.6
Adequate relief of IBS symptoms during post-treatment follow-up [2]: 62.3%
Adequate relief of the symptom of bloating during post-treatment follow-up [2]: 59.3%
Adequate Relief of Bloating, Post Treatment: Failures (Week 6): 5 (9.3%) n (%)
Adequate Relief of Bloating, Post Treatment: Success (Week 6): 49 (90.7%) n (%)
odds ratio, Adequate Relief of Bloating, Post Treatment (Week 6, RFX 550 2 w vs. PBO): Comparison of RFX 550 2 w vs. PBO p-value: 0.1303, odds ratio: 3.840
Adequate Relief of Bloating, Post Treatment: Failures (Week 7): 9 (16.7%) n (%)
Adequate Relief of Bloating, Post Treatment: Success (Week 7): 45 (83.3%) n (%)
odds ratio, Adequate Relief of Bloating, Post Treatment (Week 7, RFX 550 2 w vs. PBO): Comparison of RFX 550 2 w vs. PBO p-value: 0.1311, odds ratio: 2.931
Adequate Relief of Bloating, Post Treatment: Failures (Week 8): 7 (13.0%) n (%)
Adequate Relief of Bloating, Post Treatment: Success (Week 8): 47 (87.0%) n (%)
odds ratio, Adequate Relief of Bloating, Post Treatment (Week 8, RFX 550 2 w vs. PBO): Comparison of RFX 550 2 w vs. PBO p-value: 0.2858, odds ratio: 2.107
Adequate Relief of Bloating, Post Treatment: Failures (Week 9): 15 (27.8%) n (%)
Adequate Relief of Bloating, Post Treatment: Success (Week 9): 39 (72.2%) n (%)
odds ratio, Adequate Relief of Bloating, Post Treatment (Week 9, RFX 550 2 w vs. PBO): Comparison of RFX 550 2 w vs. PBO p-value: 0.0814, odds ratio: 2.737
Adequate Relief of Bloating, Post Treatment: Failures (Week 10): 15 (27.8%) n (%)
Adequate Relief of Bloating, Post Treatment: Success (Week 10): 39 (72.2%) n (%)
odds ratio, Adequate Relief of Bloating, Post Treatment (Week 10, RFX 550 2 w vs. PBO): Comparison of RFX 550 2 w vs. PBO p-value: 0.0217, odds ratio: 3.828
Adequate Relief of Bloating, Post Treatment: Failures (Week 11): 19 (35.2%) n (%)
Adequate Relief of Bloating, Post Treatment: Success (Week 11): 35 (64.8%) n (%)
odds ratio, Adequate Relief of Bloating, Post Treatment (Week 11, RFX 550 2 w vs. PBO): Comparison of RFX 550 2 w vs. PBO p-value: 0.0398, odds ratio: 3.115
Adequate Relief of Bloating, Post Treatment: Failure (Week 12): 18 (33.3%) n (%)
Adequate Relief of Bloating, Post Treatment: Success (Week 12): 36 (66.7%) n (%)
odds ratio, Adequate Relief of Bloating, Post Treatment (Week 12, RFX 550 2 w vs. PBO): Comparison of RFX 550 2 w vs. PBO p-value: 0.0596, odds ratio: 2.891
Adequate Relief of Bloating, Post Treatment: Failure (Week 13): 21 (38.9%) n (%)
Adequate Relief of Bloating, Post Treatment: Success (Week 13): 33 (61.1%) n (%)
odds ratio, Adequate Relief of Bloating, Post Treatment (Week 13, RFX 550 2 w vs. PBO): Comparison of RFX 550 2 w vs. PBO p-value: 0.0142, odds ratio: 4.187
Adequate Relief of Bloating, Post Treatment: Failure (Week 14): 20 (37.0%) n (%)
Adequate Relief of Bloating, Post Treatment: Success (Week 14): 34 (63.0%) n (%)
odds ratio, Adequate Relief of Bloating, Post Treatment (Week 14, RFX 550 2 w vs. PBO): Comparison of RFX 550 2 w vs. PBO p-value: 0.0121, odds ratio: 4.230
Adequate Relief of Bloating, Post Treatment: Failure (Week 15): 23 (42.6%) n (%)
Adequate Relief of Bloating, Post Treatment: Success (Week 15): 31 (57.4%) n (%)
odds ratio, Adequate Relief of Bloating, Post Treatment (Week 15, RFX 550 2 w vs. PBO): Comparison of RFX 550 2 w vs. PBO p-value: 0.0391, odds ratio: 3.323
Adequate Relief of Bloating, Post Treatment: Failure (Week 16): 22 (40.7%) n (%)
Adequate Relief of Bloating, Post Treatment: Success (Week 16): 32 (59.3%) n (%)
odds ratio, Adequate Relief of Bloating, Post Treatment (Week 16, RFX 550 2 w vs. PBO): Comparison of RFX 550 2 w vs. PBO p-value: 0.0212, odds ratio: 3.700
Treatment effect (Bloating) (dIBS Type: aIBS): 31.4%*, 31.4%
Treatment effect (IBS Sx) (dIBS Type: aIBS): 31.4%*, 31.4%
Treatment effect (Bloating) (dIBS Type: dIBS only): 4.5%
Treatment effect (IBS Sx) (dIBS Type: dIBS only): 6.3%
Patients with adequate relief of bloating [3]: 44%
Patients with adequate relief of global IBS symptoms [3]: 50%
Patients with adequate relief of bloating [4]: 47%
Patients with adequate relief of global IBS symptoms [4]: 56%
